Source: patent US20240043415A1, “KCNT1 INHIBITORS AND METHODS OF USE” (Praxis Precision Medicines, Inc., priority 2020, published 2024)

Target: T1, KCNT1 (KNa1.1, Slack) (Homo sapiens, UniProt Q5JUK3)
T1 construct: expressed in transfected cells; host or cells: HEK-TREX (tetracycline-inducible)
T1 sequence (Q5JUK3 1-1230): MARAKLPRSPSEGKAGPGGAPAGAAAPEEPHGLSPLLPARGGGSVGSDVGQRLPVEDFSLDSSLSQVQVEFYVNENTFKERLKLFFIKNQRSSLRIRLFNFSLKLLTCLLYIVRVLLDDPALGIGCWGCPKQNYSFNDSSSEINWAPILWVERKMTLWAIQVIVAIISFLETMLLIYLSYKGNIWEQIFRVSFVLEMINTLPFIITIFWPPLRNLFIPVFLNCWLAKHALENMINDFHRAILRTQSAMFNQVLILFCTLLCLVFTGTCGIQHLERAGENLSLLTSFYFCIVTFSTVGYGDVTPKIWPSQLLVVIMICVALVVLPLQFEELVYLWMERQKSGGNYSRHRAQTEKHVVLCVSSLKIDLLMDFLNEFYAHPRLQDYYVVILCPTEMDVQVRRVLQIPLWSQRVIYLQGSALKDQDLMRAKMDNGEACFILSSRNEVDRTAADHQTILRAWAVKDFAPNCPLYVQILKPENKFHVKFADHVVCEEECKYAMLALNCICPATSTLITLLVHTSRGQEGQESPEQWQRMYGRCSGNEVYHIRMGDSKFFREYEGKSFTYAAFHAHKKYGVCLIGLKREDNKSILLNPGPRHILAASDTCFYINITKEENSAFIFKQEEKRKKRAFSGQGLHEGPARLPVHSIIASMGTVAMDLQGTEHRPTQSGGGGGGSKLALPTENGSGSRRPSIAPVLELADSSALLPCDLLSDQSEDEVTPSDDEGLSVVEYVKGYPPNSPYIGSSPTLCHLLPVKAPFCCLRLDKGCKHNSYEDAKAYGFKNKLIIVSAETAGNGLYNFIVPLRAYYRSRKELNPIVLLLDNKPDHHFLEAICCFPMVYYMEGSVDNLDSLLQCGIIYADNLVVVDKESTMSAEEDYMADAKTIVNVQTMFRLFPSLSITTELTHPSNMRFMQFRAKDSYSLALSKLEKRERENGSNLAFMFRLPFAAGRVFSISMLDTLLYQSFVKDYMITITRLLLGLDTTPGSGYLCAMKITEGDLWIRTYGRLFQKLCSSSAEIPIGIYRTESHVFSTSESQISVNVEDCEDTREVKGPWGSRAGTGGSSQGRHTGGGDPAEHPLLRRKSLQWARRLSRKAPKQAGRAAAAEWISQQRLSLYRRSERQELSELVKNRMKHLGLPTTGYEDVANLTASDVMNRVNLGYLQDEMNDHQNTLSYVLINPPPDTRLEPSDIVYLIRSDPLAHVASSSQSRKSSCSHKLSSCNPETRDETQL
Experiment: KCNT1 patch clamp assay (SyncroPatch 384PE, HEK-TREX cell line)
Assay type: cell-based
Conditions: tetracycline inducible HEK-TREX cell line, perforated patch, step to 0 mV, room temperature; read-out: KCNT1-WT IC50
Experimental: Currents were recorded using the SyncroPatch 384PE automated, patch clamp system. Pulse generation and data collection were performed with PatchController384 V1.3.0 and DataController384 V1.2.1 (Nanion Technologies). The access resistance and apparent membrane capacitance were estimated using built-in protocols. Current were recorded in perforated patch mode (10 μM escin) from a population of cells. The cells were lifted, triturated, and resuspended at 800,000 cells/ml. The cells were allowed to recover in the cell hotel prior to experimentation. Currents were recorded at room temperature. […] The extracellular solution was used as the wash, reference and compound delivery solution. […] Escin is made at a 5 mM stock in water, aliquoted, and stored at −20° C. The compound plate was created at 2× concentrated in the extracellular solution. The compound was diluted to 1:2 when added to the recording well. The amount of DMSO in the extracellular solution was held constant at the level used for the highest tested concentration. A holding potential of −80 mV with a 100 ms step to 0 mV was used. […] The average mean current from 3 sweeps was calculated and the % inhibition of each compound was calculated. The % Inhibition as a function of the compound concentration was fit with a Hill equation to derive IC50, slope, min and max parameters.

For C[C@H](NC(=O)c1cc(C(F)(F)F)nn1C)c1noc(-c2ccnc(C3CC3)c2)n1 [Compound 2a, (S)-N-(1-(5-(2-cyclopropylpyridin-4-yl)-1,2,4-oxadiazol-3-yl)ethyl)-1-methyl-3-(trifluoromethyl)-1H-pyrazole-5-carboxamide], the IC50 was no more than 1 µM.
